# Reference: the supplement of paper PMC10307832
# How the values were obtained:
# [1] = compound: COC1=CC=C(C=C1)CN2C=CC3=C2C=C(C=C3)C(=O)NO + COc1cc2c(Oc3ccc(NC(=O)C4(C(=O)Nc5ccc(F)cc5)CC4)cc3F)ccnc2cc1OCCCN1CCOCC1 [Foretinib] (partner 0.25 µM); test: relative viability (nuclei count vs DMSO), 5 days (fraction); higher = more cells survive
# Outline: (§1)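 Relative viability is defined as nuclei in treated wells over nuclei in vehicle wells. Duplicate plates were run and medians reported. Lung cancer cell lines in 1536-well plates were dosed by pin tool one day after seeding, with one drug or with a fixed anchor-drug dose plus five library-drug doses (not always all listed) in √10 steps, and nuclei were counted after 5 days.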
# Veliparib + Tozasertib = compound: C[C@]1(c2nc3c(C(N)=O)cccc3[nH]2)CCCN1 [Veliparib] + Cc1cc(Nc2cc(N3CCN(C)CC3)nc(Sc3ccc(NC(=O)C4CC4)cc3)n2)n[nH]1 [Tozasertib] (partner 0.1 µM); test: as above
# Outline: as §1
cell line,measurement,setting,value
NCI-H23,relative viability,[1]; first compound 0.08 µM,0.823
same,relative viability,[1]; first compound 0.253 µM,1.17
same,relative viability,[1]; first compound 0.8 µM,0.981
same,relative viability,[1]; first compound 2.53 µM,0.955
same,relative viability,[1]; first compound 8 µM,0.853
same,relative viability,Veliparib + Tozasertib; first compound 0.02 µM,0.38
same,relative viability,Veliparib + Tozasertib; first compound 0.06325 µM,0.429
same,relative viability,Veliparib + Tozasertib; first compound 0.2 µM,0.434
same,relative viability,Veliparib + Tozasertib; first compound 0.6325 µM,0.381
same,relative viability,Veliparib + Tozasertib; first compound 2 µM,0.426
Calu-6,relative viability,[1]; first compound 0.08 µM,0.419
same,relative viability,[1]; first compound 0.253 µM,0.853
same,relative viability,[1]; first compound 0.8 µM,0.851
same,relative viability,[1]; first compound 2.53 µM,0.889
same,relative viability,[1]; first compound 8 µM,0.725
NCI-H1623,relative viability,[1]; first compound 0.08 µM,0.649
same,relative viability,[1]; first compound 0.253 µM,0.82
same,relative viability,[1]; first compound 0.8 µM,0.866
same,relative viability,[1]; first compound 2.53 µM,0.859
same,relative viability,[1]; first compound 8 µM,0.766
same,relative viability,Veliparib + Tozasertib; first compound 0.06325 µM,0.439
same,relative viability,Veliparib + Tozasertib; first compound 0.2 µM,0.428
same,relative viability,Veliparib + Tozasertib; first compound 0.6325 µM,0.461
same,relative viability,Veliparib + Tozasertib; first compound 2 µM,0.444
LC-2-ad,relative viability,[1]; first compound 0.08 µM,0.904
same,relative viability,[1]; first compound 0.253 µM,0.918
same,relative viability,[1]; first compound 0.8 µM,0.899
same,relative viability,[1]; first compound 2.53 µM,0.906
same,relative viability,[1]; first compound 8 µM,0.816
same,relative viability,Veliparib + Tozasertib; first compound 0.06325 µM,0.456
same,relative viability,Veliparib + Tozasertib; first compound 0.2 µM,0.486
same,relative viability,Veliparib + Tozasertib; first compound 0.6325 µM,0.417
same,relative viability,Veliparib + Tozasertib; first compound 2 µM,0.445
HARA,relative viability,[1]; first compound 0.253 µM,0.868
same,relative viability,[1]; first compound 0.8 µM,0.958
same,relative viability,[1]; first compound 2.53 µM,0.826
same,relative viability,[1]; first compound 8 µM,0.55
same,relative viability,Veliparib + Tozasertib; first compound 0.02 µM,0.119
same,relative viability,Veliparib + Tozasertib; first compound 0.06325 µM,0.117
same,relative viability,Veliparib + Tozasertib; first compound 0.2 µM,0.117
same,relative viability,Veliparib + Tozasertib; first compound 0.6325 µM,0.0991
same,relative viability,Veliparib + Tozasertib; first compound 2 µM,0.129
NCI-H1993,relative viability,[1]; first compound 0.08 µM,0.552
same,relative viability,[1]; first compound 0.253 µM,0.818
same,relative viability,[1]; first compound 0.8 µM,0.836
same,relative viability,[1]; first compound 2.53 µM,0.892
same,relative viability,[1]; first compound 8 µM,0.777
same,relative viability,Veliparib + Tozasertib; first compound 0.02 µM,0.612
same,relative viability,Veliparib + Tozasertib; first compound 0.06325 µM,0.583
same,relative viability,Veliparib + Tozasertib; first compound 0.2 µM,0.671
same,relative viability,Veliparib + Tozasertib; first compound 0.6325 µM,0.627
same,relative viability,Veliparib + Tozasertib; first compound 2 µM,0.598
SK-MES-1,relative viability,[1]; first compound 0.08 µM,1.17
same,relative viability,[1]; first compound 0.253 µM,0.929
same,relative viability,[1]; first compound 0.8 µM,0.927
same,relative viability,[1]; first compound 2.53 µM,0.98
same,relative viability,[1]; first compound 8 µM,0.927
same,relative viability,Veliparib + Tozasertib; first compound 0.02 µM,0.972
same,relative viability,Veliparib + Tozasertib; first compound 0.06325 µM,0.903
same,relative viability,Veliparib + Tozasertib; first compound 0.2 µM,0.843
same,relative viability,Veliparib + Tozasertib; first compound 0.6325 µM,0.821
same,relative viability,Veliparib + Tozasertib; first compound 2 µM,0.858
NCI-H2023,relative viability,[1]; first compound 0.08 µM,0.489
same,relative viability,[1]; first compound 0.253 µM,0.899
same,relative viability,[1]; first compound 0.8 µM,0.778
same,relative viability,[1]; first compound 2.53 µM,0.697
same,relative viability,[1]; first compound 8 µM,0.722
same,relative viability,Veliparib + Tozasertib; first compound 0.02 µM,0.518
same,relative viability,Veliparib + Tozasertib; first compound 0.06325 µM,0.376
same,relative viability,Veliparib + Tozasertib; first compound 0.2 µM,0.342
same,relative viability,Veliparib + Tozasertib; first compound 0.6325 µM,0.431
same,relative viability,Veliparib + Tozasertib; first compound 2 µM,0.367
EMC-BAC-2,relative viability,[1]; first compound 0.08 µM,0.788
same,relative viability,[1]; first compound 0.253 µM,1.03
same,relative viability,[1]; first compound 0.8 µM,0.98
same,relative viability,[1]; first compound 2.53 µM,0.977
same,relative viability,[1]; first compound 8 µM,0.922
same,relative viability,Veliparib + Tozasertib; first compound 0.02 µM,0.306
same,relative viability,Veliparib + Tozasertib; first compound 0.06325 µM,0.29
same,relative viability,Veliparib + Tozasertib; first compound 0.2 µM,0.339
same,relative viability,Veliparib + Tozasertib; first compound 0.6325 µM,0.286
same,relative viability,Veliparib + Tozasertib; first compound 2 µM,0.286
H3255,relative viability,[1]; first compound 0.08 µM,0.92
same,relative viability,[1]; first compound 0.253 µM,0.702
same,relative viability,[1]; first compound 0.8 µM,0.821
same,relative viability,[1]; first compound 2.53 µM,0.89
same,relative viability,[1]; first compound 8 µM,0.398
same,relative viability,Veliparib + Tozasertib; first compound 0.02 µM,0.624
same,relative viability,Veliparib + Tozasertib; first compound 0.06325 µM,0.664
same,relative viability,Veliparib + Tozasertib; first compound 0.2 µM,0.704
same,relative viability,Veliparib + Tozasertib; first compound 0.6325 µM,0.612
same,relative viability,Veliparib + Tozasertib; first compound 2 µM,0.538
SK-LU-1,relative viability,[1]; first compound 0.08 µM,0.756
same,relative viability,[1]; first compound 0.253 µM,0.766
same,relative viability,[1]; first compound 0.8 µM,0.799
same,relative viability,[1]; first compound 2.53 µM,0.86
same,relative viability,[1]; first compound 8 µM,0.74
same,relative viability,Veliparib + Tozasertib; first compound 0.02 µM,0.366
same,relative viability,Veliparib + Tozasertib; first compound 0.06325 µM,0.32
same,relative viability,Veliparib + Tozasertib; first compound 0.2 µM,0.37
same,relative viability,Veliparib + Tozasertib; first compound 0.6325 µM,0.344
same,relative viability,Veliparib + Tozasertib; first compound 2 µM,0.343
BEN,relative viability,[1]; first compound 0.08 µM,0.604
same,relative viability,[1]; first compound 0.253 µM,0.459
same,relative viability,[1]; first compound 0.8 µM,0.454
same,relative viability,[1]; first compound 2.53 µM,0.641
same,relative viability,[1]; first compound 8 µM,0.479
same,relative viability,Veliparib + Tozasertib; first compound 0.02 µM,0.456
same,relative viability,Veliparib + Tozasertib; first compound 0.06325 µM,0.558
same,relative viability,Veliparib + Tozasertib; first compound 0.2 µM,0.524
same,relative viability,Veliparib + Tozasertib; first compound 0.6325 µM,0.477
same,relative viability,Veliparib + Tozasertib; first compound 2 µM,0.481
NCI-H727,relative viability,[1]; first compound 0.08 µM,0.792
same,relative viability,[1]; first compound 0.253 µM,0.951
same,relative viability,[1]; first compound 0.8 µM,1.31
same,relative viability,[1]; first compound 2.53 µM,0.819
same,relative viability,[1]; first compound 8 µM,0.836
same,relative viability,Veliparib + Tozasertib; first compound 0.02 µM,0.672
same,relative viability,Veliparib + Tozasertib; first compound 0.06325 µM,0.648
same,relative viability,Veliparib + Tozasertib; first compound 0.2 µM,0.573
same,relative viability,Veliparib + Tozasertib; first compound 0.6325 µM,0.495
same,relative viability,Veliparib + Tozasertib; first compound 2 µM,0.654
NCI-H1755,relative viability,[1]; first compound 0.08 µM,0.892
same,relative viability,[1]; first compound 0.253 µM,1.01
same,relative viability,[1]; first compound 0.8 µM,0.915
same,relative viability,[1]; first compound 2.53 µM,0.941
same,relative viability,[1]; first compound 8 µM,0.946
same,relative viability,Veliparib + Tozasertib; first compound 0.02 µM,0.557
same,relative viability,Veliparib + Tozasertib; first compound 0.06325 µM,0.514
same,relative viability,Veliparib + Tozasertib; first compound 0.2 µM,0.569
same,relative viability,Veliparib + Tozasertib; first compound 0.6325 µM,0.571
same,relative viability,Veliparib + Tozasertib; first compound 2 µM,0.552
NCI-H1944,relative viability,[1]; first compound 0.253 µM,0.874
same,relative viability,[1]; first compound 0.8 µM,0.853
same,relative viability,[1]; first compound 2.53 µM,0.887
same,relative viability,[1]; first compound 8 µM,0.912
same,relative viability,Veliparib + Tozasertib; first compound 0.02 µM,0.261
same,relative viability,Veliparib + Tozasertib; first compound 0.06325 µM,0.253
same,relative viability,Veliparib + Tozasertib; first compound 0.2 µM,0.252
same,relative viability,Veliparib + Tozasertib; first compound 0.6325 µM,0.251
same,relative viability,Veliparib + Tozasertib; first compound 2 µM,0.249
NCI-H322M,relative viability,[1]; first compound 0.253 µM,1.03
same,relative viability,[1]; first compound 0.8 µM,1.06
same,relative viability,[1]; first compound 2.53 µM,0.984
same,relative viability,[1]; first compound 8 µM,0.882
same,relative viability,Veliparib + Tozasertib; first compound 0.06325 µM,0.425
same,relative viability,Veliparib + Tozasertib; first compound 0.2 µM,0.416
same,relative viability,Veliparib + Tozasertib; first compound 0.6325 µM,0.499
same,relative viability,Veliparib + Tozasertib; first compound 2 µM,0.422
NCI-H647,relative viability,[1]; first compound 0.08 µM,0.707
same,relative viability,[1]; first compound 0.253 µM,1.34
same,relative viability,[1]; first compound 0.8 µM,1.09
same,relative viability,[1]; first compound 2.53 µM,1.2
same,relative viability,[1]; first compound 8 µM,1.38
same,relative viability,Veliparib + Tozasertib; first compound 0.02 µM,0.28
same,relative viability,Veliparib + Tozasertib; first compound 0.06325 µM,0.346
same,relative viability,Veliparib + Tozasertib; first compound 0.2 µM,0.263
same,relative viability,Veliparib + Tozasertib; first compound 0.6325 µM,0.357
same,relative viability,Veliparib + Tozasertib; first compound 2 µM,0.254
